Source: PubChem BioAssay (NCI)
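At the GI50, growth is halved. The concentration for full growth arrest is given as TGI.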

Columns and labels:
Assay in all cases: NCI-60 cell line screen, 384-well format
786-0 renal = test system: 786-0 renal
A498 renal = test system: A498 renal
A549 NSCLC = test system: A549 NSCLC
ACHN renal = test system: ACHN renal
BT-549 breast = test system: BT-549 breast
CAKI-1 renal = test system: CAKI-1 renal
CCRF-CEM leukemia = test system: CCRF-CEM leukemia
COLO 205 colon = test system: COLO 205 colon
DU-145 prostate = test system: DU-145 prostate
EKVX NSCLC = test system: EKVX NSCLC
HCC-2998 colon = test system: HCC-2998 colon
HCT-116 colon = test system: HCT-116 colon
HCT-15 colon = test system: HCT-15 colon
HL-60(TB) leukemia = test system: HL-60(TB) leukemia
HOP-62 NSCLC = test system: HOP-62 NSCLC
HOP-92 NSCLC = test system: HOP-92 NSCLC
HS 578T breast = test system: HS 578T breast
HT29 colon = test system: HT29 colon
IGROV1 ovarian = test system: IGROV1 ovarian
K-562 leukemia = test system: K-562 leukemia
KM12 colon = test system: KM12 colon
LOX IMVI melanoma = test system: LOX IMVI melanoma
M14 melanoma = test system: M14 melanoma
MALME-3M melanoma = test system: MALME-3M melanoma
MCF7 breast = test system: MCF7 breast
MDA-MB-231 breast = test system: MDA-MB-231 breast
MDA-MB-435 melanoma = test system: MDA-MB-435 melanoma
MDA-MB-468 breast = test system: MDA-MB-468 breast
MOLT-4 leukemia = test system: MOLT-4 leukemia
NCI-H226 lung = test system: NCI-H226 lung
NCI-H23 lung = test system: NCI-H23 lung
NCI-H322M lung = test system: NCI-H322M lung
NCI-H460 NSCLC = test system: NCI-H460 NSCLC
NCI-H522 lung = test system: NCI-H522 lung
NCI/ADR-RES ovarian = test system: NCI/ADR-RES ovarian
OVCAR-3 ovarian = test system: OVCAR-3 ovarian
OVCAR-4 ovarian = test system: OVCAR-4 ovarian
OVCAR-8 ovarian = test system: OVCAR-8 ovarian
PC-3 prostate = test system: PC-3 prostate
RPMI-8226 leukemia = test system: RPMI-8226 leukemia
RXF 393 renal = test system: RXF 393 renal
SF-268 CNS = test system: SF-268 CNS
SF-295 CNS = test system: SF-295 CNS
SF-539 CNS = test system: SF-539 CNS
SK-MEL-28 melanoma = test system: SK-MEL-28 melanoma
SK-MEL-5 melanoma = test system: SK-MEL-5 melanoma
SK-OV-3 ovarian = test system: SK-OV-3 ovarian
SN12C renal = test system: SN12C renal
SNB-19 CNS = test system: SNB-19 CNS
SNB-75 CNS = test system: SNB-75 CNS
SR leukemia = test system: SR leukemia
SW-620 colon = test system: SW-620 colon
T-47D breast = test system: T-47D breast
TK-10 renal = test system: TK-10 renal
U251 glioblastoma = test system: U251 glioblastoma
UACC-257 melanoma = test system: UACC-257 melanoma
UACC-62 melanoma = test system: UACC-62 melanoma
UO-31 renal = test system: UO-31 renal

Work on `C[C@@H]1COCCN1c1cc(C2([S@](C)(=N)=O)CC2)nc(-c2ccnc3[nH]ccc23)n1` yielded a GI50 ([…]-0 renal) of 0.718 µM, a TGI (786-0 renal) of 4.25 µM and a GI50 (A498 renal) of 0.398 µM. For the same molecule, the TGI (A498 renal) was 1.95 µM, the GI50 (A549 NSCLC) was 3.1 µM and the TGI (A549 NSCLC) was 21.2 µM. For the same molecule, the GI50 (ACHN renal) was 0.826 µM, the TGI (ACHN renal) was 6.37 µM and the GI50 (BT-549 breast) was 0.573 µM. It also gave a TGI (BT-549 breast) of 3.51 µM, a GI50 (CAKI-1 renal) of 2.74 µM and a TGI (CAKI-1 renal) of 22.8 µM. For the same molecule, the GI50 (CCRF-CEM leukemia) was 0.337 µM, the TGI (CCRF-CEM leukemia) was 1.4 µM and the GI50 (COLO 205 colon) was 7.72 µM. The TGI (COLO 205 colon) was 83.7 µM, the GI50 (DU-145 prostate) was 2.8 µM and the TGI (DU-145 prostate) was greater than 100 µM. For the same molecule, the GI50 (EKVX NSCLC) was 6.53 µM, the TGI (EKVX NSCLC) was 59.9 µM and the GI50 (HCC-2998 colon) was 0.231 µM. It also gave a TGI (HCC-2998 colon) of 1.6 µM, a GI50 (HCT-116 colon) of 1.39 µM and a TGI (HCT-116 colon) of 14.6 µM. The GI50 (HCT-15 colon) was 1.9 µM, the TGI (HCT-15 colon) was 56.1 µM and the GI50 (HL-60(TB) leukemia) was 0.666 µM. For the same molecule, the TGI (HL-60(TB) leukemia) was 1.91 µM, the GI50 (HOP-62 NSCLC) was 1.1 µM and the TGI (HOP-62 NSCLC) was 4.39 µM. For the same molecule, the GI50 (HOP-92 NSCLC) was 1.16 µM, the TGI (HOP-92 NSCLC) was 6.77 µM and the GI50 (HS 578T breast) was 0.336 µM. It also gave a TGI (HS 578T breast) of 1.72 µM, a GI50 (HT29 colon) of 3.17 µM and a TGI (HT29 colon) of 9.92 µM. It also gave a GI50 (IGROV1 ovarian) of 1.87 µM, a TGI (IGROV1 ovarian) of 21.6 µM and a GI50 (K-562 leukemia) of 1.63 µM. The TGI (K-562 leukemia) was 3.7 µM, the GI50 (KM12 colon) was 0.734 µM and the TGI (KM12 colon) was 16.5 µM. It also gave a GI50 (LOX IMVI melanoma) of 2.34 µM, a TGI (LOX IMVI melanoma) of 12.6 µM and a GI50 (M14 melanoma) of 0.896 µM. It also gave a TGI (M14 melanoma) of 3.26 µM, a GI50 (MALME-3M melanoma) of 3.87 µM and a TGI (MALME-3M melanoma) of 18 µM. The GI50 (MCF7 breast) was 0.431 µM, the TGI (MCF7 breast) was greater than 100 µM and the GI50 (MDA-MB-231 breast) was 6.1 µM. For the same molecule, the TGI (MDA-MB-231 breast) was greater than 100 µM, the GI50 (MDA-MB-435 melanoma) was 3.46 µM and the TGI (MDA-MB-435 melanoma) was greater than 100 µM. For the same molecule, the GI50 (MDA-MB-468 breast) was 2.9 µM, the TGI (MDA-MB-468 breast) was 15.5 µM and the GI50 (MOLT-4 leukemia) was 0.342 µM. It also gave a TGI (MOLT-4 leukemia) of 1.52 µM, a GI50 (NCI-H226 lung) of 16.3 µM and a TGI (NCI-H226 lung) of 59.3 µM. The GI50 (NCI-H23 lung) was 0.792 µM, the TGI (NCI-H23 lung) was 2.4 µM and the GI50 (NCI-H322M lung) was 0.815 µM. The TGI (NCI-H322M lung) was 4.99 µM, the GI50 (NCI-H460 NSCLC) was 0.455 µM and the TGI (NCI-H460 NSCLC) was 8.99 µM. It also gave a GI50 (NCI-H522 lung) of 12.8 µM, a TGI (NCI-H522 lung) of 81.6 µM and a GI50 (NCI/ADR-RES ovarian) of 25.4 µM. It also gave a TGI (NCI/ADR-RES ovarian) greater than 100 µM, a GI50 (OVCAR-3 ovarian) of 1.94 µM and a TGI (OVCAR-3 ovarian) of 23.8 µM. For the same molecule, the GI50 (OVCAR-4 ovarian) was 2.03 µM, the TGI (OVCAR-4 ovarian) was 31 µM and the GI50 (OVCAR-8 ovarian) was 3.77 µM. For the same molecule, the TGI (OVCAR-8 ovarian) was 16.3 µM, the GI50 (PC-3 prostate) was 6.97 µM and the TGI (PC-3 prostate) was greater than 100 µM. The GI50 (RPMI-8226 leukemia) was 0.694 µM, the TGI (RPMI-8226 leukemia) was 2.26 µM and the GI50 (RXF 393 renal) was 1.28 µM. It also gave a TGI (RXF 393 renal) of 3.93 µM, a GI50 (SF-268 CNS) of 3.35 µM and a TGI (SF-268 CNS) of 46.3 µM. The GI50 (SF-295 CNS) was 1.97 µM, the TGI (SF-295 CNS) was 7.74 µM and the GI50 (SF-539 CNS) was 0.64 µM. The TGI (SF-539 CNS) was 2.69 µM, the GI50 (SK-MEL-28 melanoma) was 18.3 µM and the TGI (SK-MEL-28 melanoma) was 81.8 µM. For the same molecule, the GI50 (SK-MEL-5 melanoma) was 5.24 µM, the TGI (SK-MEL-5 melanoma) was 18.7 µM and the GI50 (SK-OV-3 ovarian) was 1.59 µM. For the same molecule, the TGI (SK-OV-3 ovarian) was 10.5 µM, the GI50 (SN12C renal) was 4.38 µM and the TGI (SN12C renal) was 55.9 µM. It also gave a GI50 (SNB-19 CNS) of 4.39 µM, a TGI (SNB-19 CNS) of 43.4 µM and a GI50 (SNB-75 CNS) of 3.51 µM. It also gave a TGI (SNB-75 CNS) greater than 100 µM, a GI50 (SR leukemia) of 0.0322 µM and a TGI (SR leukemia) of 0.125 µM. The GI50 (SW-620 colon) was 4.88 µM, the TGI (SW-620 colon) was greater than 100 µM and the GI50 (T-47D breast) was 18.7 µM. For the same molecule, the TGI (T-47D breast) was greater than 100 µM, the GI50 (TK-10 renal) was 0.412 µM and the TGI (TK-10 renal) was 2.42 µM. The GI50 (U251 glioblastoma) was 3 µM, the TGI (U251 glioblastoma) was 41.8 µM and the GI50 (UACC-257 melanoma) was 22.4 µM. The TGI (UACC-257 melanoma) was greater than 100 µM, the GI50 (UACC-62 melanoma) was 2.43 µM and the TGI (UACC-62 melanoma) was 36.8 µM. For the same molecule, the GI50 (UO-31 renal) was 2.82 µM and the TGI (UO-31 renal) was 25.5 µM.
